Data taken from article PMC11676896, “Protective Action of Cannabidiol on Tiamulin Toxicity in Humans—In Vitro Study” (International Journal of Molecular Sciences, 2024).
Where “and” joins values, the source holds several entries; their conditions need not be identical. Identical values can stand only once. Counter-ions that a name gives are not always drawn. Like-named read-outs stand apart in the source and are kept apart here.

Tests used:
HepG2 cells [1] = experiment: Cytotoxicity over the five assays (MTT, NRU, TPC, LDH, BrdU); format: cell-based; conditions: Homo sapiens, HepG2, 72 h, read-out: IC50 values, range over the five assays
Procedure: (§1) The cytotoxic potential of the veterinary drug and its mixtures with cannabidiol at two non-toxic concentrations: 1.56 and 3.15 µg/mL, on the human SH-SY5Y, HepG2 and HEK 293 cell lines was assessed by decreased viability of the cells within five biochemical endpoints: mitochondrial activity and lysosomal activity (MTT assays, reducing the tetrazolium dye MTT 3-(4,5-dimethylthiazol-2-yl)-2,5-diphenyltetrazolium bromide and neutral red uptake (NRU) assays), total protein content (TPC assay), cellular membrane integrity (leakage lactate dehydrogenase (LDH) assay) and DNA synthesis (the bromodeoxyuridine/5-bromo-2′-deoxyuridine incorporation into the DNA cells (BrdU) assay) after 72 h exposition. Data obtained from the measurement of the optical density in these assays were transformed to percentages in relation to the negative control group (0.1% DMSO in medium), considered to be 100% for the MTT, NRU, TPC and BrdU assays and 0% for the LDH assay. 1% Trition-X 100 solution in medium was used as the positive controls, (Figure 3).
(§2) The human neuroblastoma (SH-SY5H), hepatoma (HepG2) and kidney cells (HEK 293) cells were purchased from the American Type Culture Collection: ATCCCRL-2266,ATCC HB-8065 and ATCC CRL-1573, respectively. These cells were cultured in Minimum Essential Medium Eagle (MEME) (ATCC). […] Cytotoxicity was assessed after 72 h of exposure of the cells to the compounds. […]

HEK-293 cells [2] = experiment: as above; format: cell-based; conditions: Homo sapiens, HEK293, 72 h, read-out: IC50 values, range over the five assays
Procedure: as §1, §2

HepG2 cells [3] = experiment: DCFH-DA assay of reactive oxygen species (ROS); format: cell-based, human; conditions: HepG2, lowest concentration of tiamulin, 72 h
Procedure: (§3) The human neuroblastoma (SH-SY5H), hepatoma (HepG2) and kidney cells (HEK 293) cells were purchased from the American Type Culture Collection: ATCCCRL-2266,ATCC HB-8065 and ATCC CRL-1573, respectively. These cells were cultured in Minimum Essential Medium Eagle (MEME) (ATCC). The media were supplemented with 10% FBS, 1% L-glutamine (and 1% antibiotic solution (P4333 Sigma). The cells were maintained in 75 cm^2 cell culture flasks (NUNC) in a humidified incubator at 37 °C in an atmosphere of 5% CO2. The medium was refreshed every two or three days, and the cells were subcultured by 0.25% trypsin–0.02% EDTA after reaching 70–80% confluence. Single cell suspensions were prepared and adjusted to a density of 2 × 10^5 cell/mL^−1 (SH-SY5H), 1 × 10^5 cell/mL^−1 (HepG2) and 1 × 10^5 cell/mL^−1 (HEK-293). The cell suspension was transferred to 96-well plates (100 µL/well) or Lab-Tek chamber slides (8 wells) (Nunc) for staining and incubated for 24 h before the exposure to the studied compounds. Stock solutions of tiamulin fumarate and cannabidiol were prepared in DMSO and diluted with culture medium to obtain a concentration range from 1.56 to 200 µg/mL and 1.56 or […], respectively. The selection of tiamulin concentrations was based on data from the literature and pilot studies. The final concentration of DMSO was 0.1% in the medium. The same final concentrations of the solvent and the 1% Trition-X 100 solution were used as the negative and positive controls, respectively. A total of 500 µM hydrogen peroxide (H2O2) in was used as the positive control in the DCFH assay. […] As a negative control, cultured cells were grown in the absence of studied compounds. […] Cytotoxicity was assessed after 72 h of exposure of the cells to the compounds. […]
(§4) Intracellular levels of ROS were evaluated using the redox-sensitive fluorescent dye DCFH-DA [62]. […] After 72 h of incubation, the fluorescence of 2′,7′-dichlorofluorescein (DCF) was measured. Fluorescence was determined at 485/530 nm using a fluorescence microplate reader (BioTek® Instruments Inc., Winooski, VT, USA).

SH-SY5Y cells [4] = experiment: DCFH-DA assay of reactive oxygen species (ROS); format: cell-based, human; conditions: lowest concentration of tiamulin, 72 h
Procedure: as §3, §4

HEK-293 cells [5] = experiment: DCFH-DA assay of reactive oxygen species (ROS); format: cell-based, human; conditions: HEK-293, lowest concentration of tiamulin, 72 h
Procedure: as §3, §4

HepG2 cells [6] = experiment: TPC assay (total protein content, proliferation); format: cell-based, human; conditions: HepG2, 72 h
Procedure: as §1
(§5) The human neuroblastoma (SH-SY5H), hepatoma (HepG2) and kidney cells (HEK 293) cells were purchased from the American Type Culture Collection: ATCCCRL-2266,ATCC HB-8065 and ATCC CRL-1573, respectively. These cells were cultured in Minimum Essential Medium Eagle (MEME) (ATCC). The media were supplemented with 10% FBS, 1% L-glutamine (and 1% antibiotic solution (P4333 Sigma). The cells were maintained in 75 cm^2 cell culture flasks (NUNC) in a humidified incubator at 37 °C in an atmosphere of 5% CO2. The medium was refreshed every two or three days, and the cells were subcultured by 0.25% trypsin–0.02% EDTA after reaching 70–80% confluence. Single cell suspensions were prepared and adjusted to a density of 2 × 10^5 cell/mL^−1 (SH-SY5H), 1 × 10^5 cell/mL^−1 (HepG2) and 1 × 10^5 cell/mL^−1 (HEK-293). The cell suspension was transferred to 96-well plates (100 µL/well) or Lab-Tek chamber slides (8 wells) (Nunc) for staining and incubated for 24 h before the exposure to the studied compounds. Stock solutions of tiamulin fumarate and cannabidiol were prepared in DMSO and diluted with culture medium to obtain a concentration range from 1.56 to 200 µg/mL and 1.56 or 3.156 µg/mL, respectively. The selection of tiamulin concentrations was based on data from the literature and pilot studies. The final concentration of DMSO was 0.1% in the medium. The same final concentrations of the solvent and the 1% Trition-X 100 solution were used as the negative and positive controls, respectively. A total of 500 µM hydrogen peroxide (H2O2) in was used as the positive control in the DCFH assay. […] As a negative control, cultured cells were grown in the absence of studied compounds. Each concentration was tested in six replicates in three independent experiments. Cytotoxicity was assessed after 72 h of exposure of the cells to the compounds. The medium was not changed during the incubation time.
(§6) This assay is based upon staining the total cellular protein (proliferation). After the incubation, the medium containing the drug was removed, and 100 µL Coomassie brilliant blue R-250 dye was added to each well. The plate was shaken for 10 min. Then, the stain was removed and the cells were rinsed twice with 100 µL of washing solution (glacial acetic acid/ethanol/water, 5:10:85, v:v:v). After that, 100 µL of the desorbing solution (1 M potassium acetate) was added, and plates were shaken again for 10 min. The absorbance was measured at 595 nm in a Synergy 2 Multi-Mode Microplate Reader (BioTek® Instruments Inc., Winooski, VT, USA) using a blank as a reference. Cytotoxicity was expressed as a percentage of the negative control (0.1% DMSO in medium).
(§7) This study was performed in three independent experiments. The obtained results are presented as mean values ± SD (standard deviation). […]

SH-SY5Y cells [7] = experiment: TPC assay (total protein content, proliferation); format: cell-based, human; conditions: 72 h
Procedure: as §1, §5, §6, §7

HEK 293 cells = experiment: TPC assay (total protein content, proliferation); format: cell-based, human
Procedure: as §1, §5, §6, §7

HepG2 and HEK-293 cells = system: HepG2 and HEK-293 cells; parameters: method as in PMID 39241564, PMID 37709940; conditions: 10 h of exposure, cited from earlier work
[8] = Homo sapiens, read-out: inhibited concentration (IC50), TPC

With `C=C[C@]1(C)C[C@@H](OC(=O)CSCCN(CC)CC)[C@]2(C)[C@H](C)CC[C@]3(CCC(=O)[C@H]32)[C@@H](C)[C@@H]1O` [T, tiamulin fumarate] the IC50 (HepG2 cells [1]) was 13.9 to 39.5 µg/mL, the IC50 (HEK-293 cells [2]) was 8.5 to 76.9 µg/mL and the “increase in fluorescence intensity of the probes (ROS)” value (shortened to “increase in fluorescence intensity”) (HepG2 cells [3]) was 44%. For the same compound, the “increase in fluorescence intensity” value (SH-SY5Y cells [4]) was 66%, the “increase in fluorescence intensity” value (HEK-293 cells [5]) was 91% and the “tiamulin concentration that inhibited cell proliferation” value (HepG2 cells [6]) was 50 µg/mL. For the same compound, the IC50 (HepG2 cells [6]; [8]) was 26.7 ± 1.4 µg/mL, the “tiamulin concentration that decreased total protein content / inhibited proliferation” value (SH-SY5Y cells [7]) was 25 µg/mL and the IC50 (SH-SY5Y cells [7]; [8]) was 169 ± 3.3 µg/mL. For the same compound, the “tiamulin concentration that inhibited proliferation” value (HEK 293 cells; HEK-293, 72 h) was 12.5 µg/mL, the IC50 (HEK 293 cells; Homo sapiens, HEK293, 72 h, read-out: inhibited concentration (IC50), TPC) was 8.5 ± 0.6 µg/mL and the “concentrations with cytotoxic effects” value (HepG2 and HEK-293 cells; converted from µM) was 49.4 µg/mL and 98.8 µg/mL. For the same compound, the “concentrations with cytotoxic effects” value (HepG2 and HEK-293 cells) was 100 µM and 200 µM.
